Measurements reported in patent publication US20240228488A1 (TAKEDA PHARMACEUTICAL COMPANY LIMITED, priority 2021, published 2024).

How the values were obtained:
[1] = biological target: human activated kallikrein enzyme (Homo sapiens, UniProt P03952); assay: Plasma kallikrein inhibition, fluorogenic PFR-AMC substrate, 500 pM activated kallikrein format; type: biochemical; details: 500 pM activated kallikrein, 300 uM PFR-AMC, 30 min preincubation, 10 min reaction; read-out: Primary Dose Response Assay: Average EC50
Outline: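 Fluorogenic readout (ex 380 / em 460 nm) after 10 min room-temperature reaction with 300 uM Pro-Phe-Arg-AMC substrate, following 30 min preincubation of inhibitors with 500 pM enzyme. Buffer: Tris pH 7.5, EDTA, NaCl, PEG-400, Triton X-100. Values given as EC50 ranges.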

[2] = biological target: T1, plasma kallikrein (Homo sapiens, UniProt P03952); assay: Neat human plasma assay, FXIIa contact pathway-activated, PFR-AMC substrate; type: biochemical; details: citrated human plasma 78% final, 10 nM human FXIIa, 100 μM PFR-AMC; read-out: Human Plasma Assay: IC90
T1 construct: from tissue
Outline: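 Compound inhibition of plasma kallikrein measured as PFR-AMC (100 μM) cleavage rate over 5 min at room temperature in 78% citrated human plasma activated with 10 nM FXIIa (Tris pH 7.5 buffer). IC50/IC90 from 4-parameter fit of rate versus inhibitor concentration.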

T1 sequence (P03952 391-638 limits assumed): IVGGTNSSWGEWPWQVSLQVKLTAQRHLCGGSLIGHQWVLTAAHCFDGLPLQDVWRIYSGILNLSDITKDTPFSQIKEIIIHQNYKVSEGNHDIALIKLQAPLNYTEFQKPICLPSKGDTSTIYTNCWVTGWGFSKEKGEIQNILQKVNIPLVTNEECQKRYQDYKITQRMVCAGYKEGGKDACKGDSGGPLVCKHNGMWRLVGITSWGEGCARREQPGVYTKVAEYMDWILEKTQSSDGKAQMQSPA
T1 sequence (P03952 20-390 partner limits assumed): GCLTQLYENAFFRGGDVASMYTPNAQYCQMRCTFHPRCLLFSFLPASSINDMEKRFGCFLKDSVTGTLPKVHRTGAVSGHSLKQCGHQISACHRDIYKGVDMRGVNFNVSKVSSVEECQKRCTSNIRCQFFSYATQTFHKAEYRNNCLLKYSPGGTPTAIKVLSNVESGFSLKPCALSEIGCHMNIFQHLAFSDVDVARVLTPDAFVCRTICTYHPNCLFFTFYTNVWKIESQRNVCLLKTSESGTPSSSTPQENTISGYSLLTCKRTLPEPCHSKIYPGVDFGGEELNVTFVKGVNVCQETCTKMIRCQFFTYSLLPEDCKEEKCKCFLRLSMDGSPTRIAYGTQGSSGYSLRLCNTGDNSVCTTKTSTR
human activated kallikrein enzyme, sequence (P03952 391-638 limits assumed): as the sequence (P03952 391-638 limits assumed) above
human activated kallikrein enzyme, sequence (P03952 20-390 partner limits assumed): as the sequence (P03952 20-390 partner limits assumed) above

Compound CC1(C)CN(c2cc(C3CC3)cn3cc(CNc4cc(NC(=O)[C@H]5C[C@@H]5c5cccc(Cl)c5)ncn4)nc23)C(=O)O1 [Example I-199, (1S,2S)-2-(3-chlorophenyl)-N-(6-(((6-cyclopropyl-8-(5,5-dimethyl-2-oxooxazolidin-3-yl)imidazo[1,2-a]pyridin-2-yl)methyl)amino)pyrimidin-4-yl)cyclopropane-1-carboxamide] has an EC50 [1] of 1 to 10 nM and an IC90 [2] of 1500 to 10000 nM.
For O=C(Nc1cc(NCc2cn3cc(C4CC4)cc(N4CCN5CCCC5C4)c3n2)ncn1)[C@H]1C[C@@H]1c1cccc(Cl)c1 (stereo partly drawn) [Example I-200, (1S,2S)-2-(3-chlorophenyl)-N-(6-(((6-cyclopropyl-8-(hexahydropyrrolo[1,2-a]pyrazin-2(1H)-yl)imidazo[1,2-a]pyridin-2-yl)methyl)amino)pyrimidin-4-yl)cyclopropane-1-carboxamide], the EC50 [1] was under 1 nM and the IC90 [2] was 400 to 1500 nM.
In the case of O=C(Nc1cc(NCc2cn3cc(C4CC4)cc(N4CCN(C5COC5)CC4)c3n2)ncn1)[C@H]1C[C@@H]1c1cccc(Cl)c1 [Example I-202, (1S,2S)-2-(3-chlorophenyl)-N-(6-(((6-cyclopropyl-8-(4-(oxetan-3-yl)piperazin-1-yl)imidazo[1,2-a]pyridin-2-yl)methyl)amino)pyrimidin-4-yl)cyclopropane-1-carboxamide], the EC50 [1] is reported as 1 to 10 nM and the IC90 [2] is reported as 400 to 1500 nM.
CC(=O)c1cc(C2CC2)cn2cc(CNc3cc(NC(=O)[C@H]4C[C@@H]4c4cccc(Cl)c4)ncn3)nc12 [Example I-207, (1S,2S)-N-(6-(((8-acetyl-6-cyclopropylimidazo[1,2-a]pyridin-2-yl)methyl)amino)pyrimidin-4-yl)-2-(3-chlorophenyl)cyclopropane-1-carboxamide] showed an EC50 [1] of 1 to 10 nM and an IC90 [2] of 1500 to 10000 nM.
CN1C(=O)CN(c2cc(C3CC3)cn3cc(CNc4ccnc(NC(=O)[C@H]5C[C@@H]5c5cccc(Cl)c5)c4)nc23)C1=O [Example I-209, (1S,2S)-2-(3-chlorophenyl)-N-(4-(((6-cyclopropyl-8-(3-methyl-2,4-dioxoimidazolidin-1-yl)imidazo[1,2-a]pyridin-2-yl)methyl)amino)pyridin-2-yl)cyclopropane-1-carboxamide] gave an EC50 [1] of under 1 nM and an IC90 [2] of 400 to 1500 nM.
CN1CC(F)(c2cc(C3CC3)cn3cc(CNc4ccnc(NC(=O)[C@H]5C[C@@H]5c5cccc(Cl)c5)c4)nc23)C1 [Example I-227, (1S,2S)-2-(3-chlorophenyl)-N-(4-(((6-cyclopropyl-8-(3-fluoro-1-methylazetidin-3-yl)imidazo[1,2-a]pyridin-2-yl)methyl)amino)pyridin-2-yl)cyclopropane-1-carboxamide] showed an EC50 [1] of under 1 nM and an IC90 [2] of under 400 nM.
O=C(Nc1cc(NCc2cn3cc(C4CC4)cc(N4CCN5CC(O)CC5C4)c3n2)ccn1)[C@H]1C[C@@H]1c1cccc(Cl)c1 (stereo partly drawn) [Example I-228, (1S,2S)-2-(3-chlorophenyl)-N-(4-(((6-cyclopropyl-8-(7-hydroxyhexahydropyrrolo[1,2-a]pyrazin-2(1H)-yl)imidazo[1,2-a]pyridin-2-yl)methyl)amino)pyridin-2-yl)cyclopropane-1-carboxamide] showed an EC50 [1] of under 1 nM and an IC90 [2] of 400 to 1500 nM.
Compound CN1CCC(F)(c2cc(C3CC3)cn3cc(CNc4ccnc(NC(=O)[C@H]5C[C@@H]5c5cccc(Cl)c5)c4)nc23)CC1 [Example I-229, (1S,2S)-2-(3-chlorophenyl)-N-(4-(((6-cyclopropyl-8-(4-fluoro-1-methylpiperidin-4-yl)imidazo[1,2-a]pyridin-2-yl)methyl)amino)pyridin-2-yl)cyclopropane-1-carboxamide] has an EC50 [1] of under 1 nM and an IC90 [2] of under 400 nM.
O=C(Nc1cc(NCc2cn3cc(C4CC4)cc(N4CCN5CCCC5C4)c3n2)ccn1)[C@H]1C[C@@H]1c1cccc(Cl)c1 (stereo partly drawn) [Example I-231, (1S,2S)-2-(3-chlorophenyl)-N-(4-(((6-cyclopropyl-8-(hexahydropyrrolo[1,2-a]pyrazin-2(1H)-yl)imidazo[1,2-a]pyridin-2-yl)methyl)amino)pyridin-2-yl)cyclopropane-1-carboxamide] was tested, and the EC50 [1] was under 1 nM and the IC90 [2] was 400 to 1500 nM.
For O=C(Nc1cc(NCc2cn3cc(C4CC4)cc(N4CCN(C5CC5)CC4)c3n2)ccn1)[C@H]1C[C@@H]1c1cccc(Cl)c1 [Example I-232, (1S,2S)-2-(3-chlorophenyl)-N-(4-(((6-cyclopropyl-8-(4-cyclopropylpiperazin-1-yl)imidazo[1,2-a]pyridin-2-yl)methyl)amino)pyridin-2-yl)cyclopropane-1-carboxamide], the EC50 [1] was under 1 nM and the IC90 [2] was 1500 to 10000 nM.
O=C(Nc1cc(NCc2cn3cc(C4CC4)cc(N4CCN(C5COC5)CC4)c3n2)ccn1)[C@H]1C[C@@H]1c1cccc(Cl)c1 [Example I-233, (1S,2S)-2-(3-chlorophenyl)-N-(4-(((6-cyclopropyl-8-(4-(oxetan-3-yl)piperazin-1-yl)imidazo[1,2-a]pyridin-2-yl)methyl)amino)pyridin-2-yl)cyclopropane-1-carboxamide] showed an EC50 [1] of under 1 nM and an IC90 [2] of 400 to 1500 nM.
Compound CCN1CCN(c2cc(C3CC3)cn3cc(CNc4ccnc(NC(=O)[C@H]5C[C@@H]5c5cccc(Cl)c5)c4)nc23)CC1 [Example I-234, (1S,2S)-2-(3-chlorophenyl)-N-(4-(((6-cyclopropyl-8-(4-ethylpiperazin-1-yl)imidazo[1,2-a]pyridin-2-yl)methyl)amino)pyridin-2-yl)cyclopropane-1-carboxamide] has an EC50 [1] of under 1 nM and an IC90 [2] of under 400 nM.
Compound CS(=O)(=O)c1cc(C2CC2)cn2cc(CNc3ccnc(NC(=O)[C@H]4C[C@@H]4c4cccc(Cl)c4)c3)nc12 [Example I-235, (1S,2S)-2-(3-chlorophenyl)-N-(4-(((6-cyclopropyl-8-(methylsulfonyl)imidazo[1,2-a]pyridin-2-yl)methyl)amino)pyridin-2-yl)cyclopropane-1-carboxamide] has an EC50 [1] of under 1 nM and an IC90 [2] of 400 to 1500 nM.
For CC(O)c1cc(C2CC2)cn2cc(CNc3ccnc(NC(=O)[C@H]4C[C@@H]4c4cccc(Cl)c4)c3)nc12 (stereo partly drawn) [Example I-236, (1S,2S)-2-(3-chlorophenyl)-N-(4-(((6-cyclopropyl-8-(1-hydroxyethyl)imidazo[1,2-a]pyridin-2-yl)methyl)amino)pyridin-2-yl)cyclopropane-1-carboxamide], the EC50 [1] was under 1 nM and the IC90 [2] was over 48000 nM.
With CC(=O)c1cc(C2CC2)cn2cc(CNc3ccnc(NC(=O)[C@H]4C[C@@H]4c4cccc(Cl)c4)c3)nc12 [Example I-237, (1S,2S)-N-(4-(((8-acetyl-6-cyclopropylimidazo[1,2-a]pyridin-2-yl)methyl)amino)pyridin-2-yl)-2-(3-chlorophenyl)cyclopropane-1-carboxamide] the EC50 [1] was under 1 nM and the IC90 [2] was 1500 to 10000 nM.
O=C(Nc1cc(NCc2cn3cc(C4CC4)cc(N4CCOC4=O)c3n2)ccn1)[C@H]1C[C@@H]1c1cccc(Cl)c1 [Example I-238, (1S,2S)-2-(3-chlorophenyl)-N-(4-(((6-cyclopropyl-8-(2-oxooxazolidin-3-yl)imidazo[1,2-a]pyridin-2-yl)methyl)amino)pyridin-2-yl)cyclopropane-1-carboxamide] gave an EC50 [1] of under 1 nM and an IC90 [2] of under 400 nM.
With COC(=O)CCc1cc(C2CC2)cn2cc(CNc3ccnc(NC(=O)[C@H]4C[C@@H]4c4cccc(Cl)c4)c3)nc12 [Example I-239, methyl 3-(2-(((2-((1S,2S)-2-(3-chlorophenyl)cyclopropane-1-carboxamido)pyridin-4-yl)amino)methyl)-6-cyclopropylimidazo[1,2-a]pyridin-8-yl)propanoate] the EC50 [1] was under 1 nM and the IC90 [2] was 1500 to 10000 nM.
In the case of CCOC(=O)CCc1cc(C2CC2)cn2cc(CNc3ccnc(NC(=O)[C@H]4C[C@@H]4c4cccc(Cl)c4)c3)nc12 [Example I-240, ethyl 3-(2-(((2-((1S,2S)-2-(3-chlorophenyl)cyclopropane-1-carboxamido)pyridin-4-yl)amino)methyl)-6-cyclopropylimidazo[1,2-a]pyridin-8-yl)propanoate], the EC50 [1] is reported as 1 to 10 nM and the IC90 [2] is reported as 1500 to 10000 nM.
Compound CN1CCN(c2cc(C3CC3)cn3cc(CNc4cc(NC(=O)[C@H]5C[C@@H]5c5cccc(Cl)c5)ccn4)nc23)CC1 [Example I-243, (1S,2S)-2-(3-chlorophenyl)-N-(2-(((6-cyclopropyl-8-(4-methylpiperazin-1-yl)imidazo[1,2-a]pyridin-2-yl)methyl)amino)pyridin-4-yl)cyclopropane-1-carboxamide] has an EC50 [1] of under 1 nM and an IC90 [2] of 400 to 1500 nM.
Cc1ccnc([C@H]2C[C@@H]2C(=O)Nc2cc(N(C)Cc3cn4cc(C5CC5)cc(N5CC(=O)N(C)C5=O)c4n3)cnn2)n1 [Example I-254, (1S,2S)-N-(5-(((6-cyclopropyl-8-(3-methyl-2,4-dioxoimidazolidin-1-yl)imidazo[1,2-a]pyridin-2-yl)methyl)(methyl)amino)pyridazin-3-yl)-2-(4-methylpyrimidin-2-yl)cyclopropane-1-carboxamide] gave an EC50 [1] of under 1 nM and an IC90 [2] of under 400 nM.
Compound Cc1ccnc([C@H]2C[C@@H]2C(=O)Nc2cc(N(C)Cc3cn4cc(C5CC5)cc(N5CC(=O)N(CCOCc6ccccc6)C5=O)c4n3)cc(C3CC3)n2)n1 [Example I-636, (1S,2S)—N-(4-(((8-(3-(2-(benzyloxy)ethyl)-2,4-dioxoimidazolidin-1-yl)-6-cyclopropylimidazo[1,2-a]pyridin-2-yl)methyl)(methyl)amino)-6-cyclopropylpyridin-2-yl)-2-(4-methylpyrimidin-2-yl)cyclopropane-1-carboxamide] has an EC50 [1] of 1 to 10 nM and an IC90 [2] of 1500 to 10000 nM.
